{"source": "patent US20210352900A1", "about": "“Method for Controlling PPO Resistant Weeds” (BASF SE, priority 2016, published 2021)", "key": {"[1]": {"test_system": "Amaranthus tamariscinus (AMATA, common waterhemp), PPO resistant biotype 1 (w.2)", "test": "Greenhouse herbicidal activity test, PPO resistant common waterhemp biotype 1 (w.2)", "assay_type": "in vivo", "settings": "for activity on / control of resistant weeds (w.2), in words: azafenidin: in comparison to sensitive biotypes; for Weed control (%) w.2: PPO resistant biotype 1, scale 0 to 100"}, "[2]": {"test_system": "Amaranthus tamariscinus (AMATA, common waterhemp), sensitive biotype (w.1)", "test": "Greenhouse herbicidal activity test, sensitive common waterhemp (w.1)", "assay_type": "in vivo", "settings": "for Weed control (%) w.1: sensitive biotype, scale 0 (no damage) to 100 (complete destruction)"}}, "data": [{"smiles": "C#CCOc1cc(-n2nc3n(c2=O)CCCC3)c(Cl)cc1Cl", "note": "[azafenidin, reference compound]", "values": [{"measurement": "activity on / control of resistant weeds (w.2), in words", "setting": "[1]", "result": "much weaker control"}, {"measurement": "Weed control (%) w.2", "setting": "[1]; use rate 2 g/ha", "result": 67, "unit": "%"}, {"measurement": "Weed control (%) w.2", "setting": "[1]; use rate 4 g/ha", "result": 73, "unit": "%"}, {"measurement": "Weed control (%) w.1", "setting": "[2]; use rate 2 g/ha", "result": 95, "unit": "%"}, {"measurement": "Weed control (%) w.1", "setting": "[2]; use rate 4 g/ha", "result": 98, "unit": "%"}]}, {"smiles": "CCc1ccc(COc2ccc(-n3c(=O)cc(C(F)(F)F)n(C)c3=O)cc2)c(OC(C)C(=O)OC)c1", "note": "(centres unmarked) [(I).1, benzfendizone]", "values": [{"measurement": "activity on / control of resistant weeds (w.2), in words", "setting": "[1]", "result": "very good activity"}, {"measurement": "Weed control (%) w.2", "setting": "[1]; use rate 2 g/ha", "result": 89, "unit": "%"}, {"measurement": "Weed control (%) w.2", "setting": "[1]; use rate 4 g/ha", "result": 92, "unit": "%"}, {"measurement": "activity on sensitive weeds (w.1), in words", "setting": "[2]", "result": "very good activity"}, {"measurement": "Weed control (%) w.1", "setting": "[2]; use rate 2 g/ha", "result": 94, "unit": "%"}, {"measurement": "Weed control (%) w.1", "setting": "[2]; use rate 4 g/ha", "result": 100, "unit": "%"}]}]}
